The values that follow come from ChEMBL document CHEMBL4387728, “Synthetic glycopeptides reveal specific binding pattern and conformational change at O-mannosylated position of α-dystroglycan by POMGnT1 catalyzed GlcNAc modification” (Bioorg Med Chem, 2019).

For one test, the system named is Canavalia ensiformis. As to the kind of experiment: Binding affinity to biotin-labeled Canavalia ensiformis agglutinin in pH 7.4 Tris buffer by fluorescence microarray method.
The test system of a further test is Arachis hypogaea. As to the kind of experiment: Binding affinity to biotin-labeled Arachis hypogaea agglutinin in pH 7.4 Tris buffer by fluorescence microarray method.
Test [1] has as its target Lactotransferrin (Homo sapiens) (UniProt P02788). As to the kind of experiment: Binding affinity to biotin-labeled lactoferrin (unknown origin) at 10 ug/ml in pH 5.6 MES buffer by fluorescence microarray method.
For test [2], the system named is Sambucus racemosa subsp. sieboldiana. As to the kind of experiment: Binding affinity to biotin-labeled Sambucus sieboldiana agglutinin in pH 7.4 Tris buffer by fluorescence microarray method.
Another test has as its system Triticum aestivum. The test can be described thus: Binding affinity to biotin-labeled Wheat germ agglutinin in pH 7.4 Tris buffer by fluorescence microarray method.
The subject of a further test is Datura stramonium. As to the kind of experiment: Binding affinity to biotin-labeled Datura stramonium agglutinin in pH 7.4 Tris buffer by fluorescence microarray method.
The species named for test [3] is Homo sapiens. As to the kind of experiment: Binding affinity to biotin-labeled human recombinant laminin-2 at 10 ug/ml in 5.6 MES buffer by fluorescence microarray method.
Another test deals with Maackia amurensis. As to the kind of experiment: Binding affinity to biotin-labeled Maackia amurensis agglutinin in pH 7.4 Tris buffer by fluorescence microarray method.
In test [4] the target is Laminin subunit alpha-1 (Homo sapiens) (UniProt P25391). The test can be described thus: Binding affinity to biotin-labeled human recombinant laminin-1 at 10 ug/ml in pH 5.6 MES buffer by fluorescence microarray method.
Laminin subunit alpha-1 (Homo sapiens), sequence (P25391 whole entry): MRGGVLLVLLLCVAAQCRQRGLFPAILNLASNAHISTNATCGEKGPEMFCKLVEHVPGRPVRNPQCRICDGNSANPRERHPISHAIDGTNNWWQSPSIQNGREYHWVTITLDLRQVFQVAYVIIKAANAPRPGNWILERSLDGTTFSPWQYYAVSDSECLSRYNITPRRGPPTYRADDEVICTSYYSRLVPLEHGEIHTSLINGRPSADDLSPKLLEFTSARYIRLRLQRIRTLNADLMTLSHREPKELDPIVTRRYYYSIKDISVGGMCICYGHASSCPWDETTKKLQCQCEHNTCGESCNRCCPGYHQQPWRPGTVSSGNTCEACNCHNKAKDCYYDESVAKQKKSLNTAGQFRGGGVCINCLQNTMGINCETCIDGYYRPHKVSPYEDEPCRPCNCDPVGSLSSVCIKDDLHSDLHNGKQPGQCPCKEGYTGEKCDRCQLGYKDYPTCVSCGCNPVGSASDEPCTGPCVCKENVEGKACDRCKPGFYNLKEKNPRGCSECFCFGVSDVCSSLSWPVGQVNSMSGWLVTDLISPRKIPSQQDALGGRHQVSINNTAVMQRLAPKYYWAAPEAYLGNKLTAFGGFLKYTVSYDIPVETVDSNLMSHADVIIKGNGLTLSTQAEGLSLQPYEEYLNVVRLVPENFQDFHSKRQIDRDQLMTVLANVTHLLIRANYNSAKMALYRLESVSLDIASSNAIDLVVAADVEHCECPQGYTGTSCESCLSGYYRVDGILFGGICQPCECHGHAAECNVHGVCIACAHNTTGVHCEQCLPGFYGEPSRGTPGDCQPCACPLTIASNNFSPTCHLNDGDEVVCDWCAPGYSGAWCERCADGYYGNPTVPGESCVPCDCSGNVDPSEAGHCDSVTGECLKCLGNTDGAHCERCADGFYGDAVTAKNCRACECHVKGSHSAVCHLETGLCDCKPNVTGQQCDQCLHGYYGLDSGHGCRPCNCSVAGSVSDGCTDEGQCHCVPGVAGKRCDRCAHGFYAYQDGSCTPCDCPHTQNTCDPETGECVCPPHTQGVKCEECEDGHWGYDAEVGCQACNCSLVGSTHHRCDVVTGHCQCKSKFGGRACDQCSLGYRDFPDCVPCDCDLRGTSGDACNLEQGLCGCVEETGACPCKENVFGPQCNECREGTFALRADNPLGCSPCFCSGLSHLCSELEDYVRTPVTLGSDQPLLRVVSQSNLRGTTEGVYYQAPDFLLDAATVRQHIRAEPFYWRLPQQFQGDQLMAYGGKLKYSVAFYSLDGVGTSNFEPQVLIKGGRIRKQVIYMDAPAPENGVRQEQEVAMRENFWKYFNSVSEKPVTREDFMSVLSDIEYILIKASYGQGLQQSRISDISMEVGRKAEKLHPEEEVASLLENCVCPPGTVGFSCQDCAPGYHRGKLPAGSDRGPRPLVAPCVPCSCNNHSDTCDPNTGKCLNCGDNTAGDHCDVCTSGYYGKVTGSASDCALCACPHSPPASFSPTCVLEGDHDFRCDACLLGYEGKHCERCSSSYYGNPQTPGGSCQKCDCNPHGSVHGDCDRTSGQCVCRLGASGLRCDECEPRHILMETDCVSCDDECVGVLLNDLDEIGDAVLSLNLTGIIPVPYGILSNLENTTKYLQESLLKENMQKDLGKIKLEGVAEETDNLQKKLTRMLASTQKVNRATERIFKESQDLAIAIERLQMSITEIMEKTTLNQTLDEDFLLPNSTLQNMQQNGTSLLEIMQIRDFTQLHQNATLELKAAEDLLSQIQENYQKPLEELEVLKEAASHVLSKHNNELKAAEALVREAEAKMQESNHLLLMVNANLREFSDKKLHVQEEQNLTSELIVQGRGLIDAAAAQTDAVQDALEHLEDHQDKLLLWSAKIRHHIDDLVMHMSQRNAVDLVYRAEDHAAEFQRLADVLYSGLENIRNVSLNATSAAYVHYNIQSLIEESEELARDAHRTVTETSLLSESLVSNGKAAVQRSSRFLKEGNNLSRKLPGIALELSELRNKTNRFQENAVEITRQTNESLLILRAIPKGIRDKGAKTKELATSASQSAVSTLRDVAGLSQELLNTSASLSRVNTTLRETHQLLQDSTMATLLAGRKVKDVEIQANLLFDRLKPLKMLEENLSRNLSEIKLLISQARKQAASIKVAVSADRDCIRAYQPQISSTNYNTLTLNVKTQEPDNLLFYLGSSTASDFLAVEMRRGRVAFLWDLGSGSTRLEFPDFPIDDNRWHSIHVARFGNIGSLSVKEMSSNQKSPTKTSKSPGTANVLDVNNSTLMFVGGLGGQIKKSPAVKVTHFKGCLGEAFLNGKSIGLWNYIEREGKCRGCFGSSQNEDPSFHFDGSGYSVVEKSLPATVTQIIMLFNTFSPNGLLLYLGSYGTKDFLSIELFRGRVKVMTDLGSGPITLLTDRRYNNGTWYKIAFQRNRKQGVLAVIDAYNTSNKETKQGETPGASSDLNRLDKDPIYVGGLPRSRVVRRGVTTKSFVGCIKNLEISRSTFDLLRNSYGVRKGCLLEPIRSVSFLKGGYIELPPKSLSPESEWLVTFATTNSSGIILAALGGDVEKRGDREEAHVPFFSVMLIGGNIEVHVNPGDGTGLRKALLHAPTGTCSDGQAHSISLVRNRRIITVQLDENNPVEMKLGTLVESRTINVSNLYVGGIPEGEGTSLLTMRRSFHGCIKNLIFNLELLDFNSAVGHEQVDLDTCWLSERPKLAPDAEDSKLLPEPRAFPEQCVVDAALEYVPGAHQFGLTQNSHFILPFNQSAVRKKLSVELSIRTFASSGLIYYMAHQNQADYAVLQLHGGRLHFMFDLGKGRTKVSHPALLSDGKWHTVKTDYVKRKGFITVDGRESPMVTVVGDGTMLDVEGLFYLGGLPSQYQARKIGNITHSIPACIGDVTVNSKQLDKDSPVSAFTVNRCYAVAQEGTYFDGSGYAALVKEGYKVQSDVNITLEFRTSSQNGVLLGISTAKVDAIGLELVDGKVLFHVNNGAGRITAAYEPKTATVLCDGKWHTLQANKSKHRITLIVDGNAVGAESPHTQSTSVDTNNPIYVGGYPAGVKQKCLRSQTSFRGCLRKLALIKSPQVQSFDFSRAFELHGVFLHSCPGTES
Test [5] can be described thus: Binding affinity to biotin-labeled Agaricus bisporus agglutinin in pH 7.4 Tris buffer by fluorescence microarray method.
Test [6] deals with Laminin subunit alpha-1 (Homo sapiens) (UniProt P25391). The test can be described thus: Binding affinity to biotin-labeled human recombinant laminin-1 at 10 ug/ml in pH 7.4 Tris buffer by fluorescence microarray method.
The species entered for test [7] is Homo sapiens. The test can be described thus: Binding affinity to biotin-labeled human recombinant laminin-2 at 10 ug/ml in pH 7.4 Tris buffer by fluorescence microarray method.
The next test concerns Erythrina crista-galli. As to the kind of experiment: Binding affinity to biotin-labeled Erythrina crista-galli agglutinin in pH 7.4 Tris buffer by fluorescence microarray method.
The target in test [8] is Lactotransferrin (Homo sapiens) (UniProt P02788). The test can be described thus: Binding affinity to biotin-labeled lactoferrin (unknown origin) at 10 ug/ml in pH 7.4 Tris buffer by fluorescence microarray method.
Lactotransferrin (Homo sapiens), sequence (P02788 whole entry): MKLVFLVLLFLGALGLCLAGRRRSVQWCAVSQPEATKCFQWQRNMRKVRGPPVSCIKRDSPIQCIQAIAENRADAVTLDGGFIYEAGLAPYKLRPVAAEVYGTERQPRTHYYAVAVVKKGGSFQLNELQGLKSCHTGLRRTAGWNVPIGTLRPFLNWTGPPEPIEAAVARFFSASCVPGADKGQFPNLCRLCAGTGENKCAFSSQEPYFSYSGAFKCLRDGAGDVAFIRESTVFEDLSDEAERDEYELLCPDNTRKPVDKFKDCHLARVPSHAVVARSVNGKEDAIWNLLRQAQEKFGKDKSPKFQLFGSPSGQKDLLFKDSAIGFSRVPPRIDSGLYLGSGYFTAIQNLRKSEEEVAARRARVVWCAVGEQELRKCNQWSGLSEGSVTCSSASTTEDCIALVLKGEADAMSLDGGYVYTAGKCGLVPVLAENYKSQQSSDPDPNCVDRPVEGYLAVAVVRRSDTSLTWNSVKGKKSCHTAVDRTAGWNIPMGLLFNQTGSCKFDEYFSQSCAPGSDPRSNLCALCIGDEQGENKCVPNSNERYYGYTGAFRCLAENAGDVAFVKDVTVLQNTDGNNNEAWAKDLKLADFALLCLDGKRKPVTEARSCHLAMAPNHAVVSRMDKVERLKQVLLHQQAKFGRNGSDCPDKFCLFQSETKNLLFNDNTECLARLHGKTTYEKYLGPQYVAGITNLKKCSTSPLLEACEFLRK

Active and inactive are the calls of the source. The rule behind the calls is not given here. Peptide text beside a SMILES is read from it. * marks the point of attachment. GlcNAc(β1-2)αMan = CC(=O)N[C@H]1[C@H](O[C@H]2[C@@H](O)[C@H](O)[C@@H](CO)O[C@@H]2*)O[C@H](CO)[C@@H](O)[C@@H]1O; Hexanoyl(5-oxo) = CC(=O)CCCC(=O)*

With `CC[C@H](C)[C@H](NC(=O)[C@H](C)NC(=O)CNC(=O)[C@H](CCCNC(=N)N)NC(=O)[C@@H](NC(=O)CCCC(C)=O)[C@@H](C)O)C(=O)N[C@H](C(=O)N[C@@H](CCC(N)=O)C(=O)N[C@H](C(=O)N1CCC[C@H]1C(=O)N[C@H](C(=O)N[C@@H](CC(C)C)C(=O)NCC(=O)N1CCC[C@H]1C(=O)N[C@H](C(=O)N[C@@H](CCC(N)=O)C(=O)N1CCC[C@H]1C(=O)N[C@H](C(=O)N[C@@H](CCCNC(=N)N)C(=O)N[C@H](C(N)=O)C(C)C)[C@@H](C)O[C@H]1O[C@H](CO)[C@@H](O)[C@H](O)[C@@H]1O[C@@H]1O[C@H](CO)[C@@H](O[C@@H]2O[C@H](CO)[C@H](O)[C@H](O[C@]3(C(=O)O)C[C@H](O)[C@@H](NC(C)=O)[C@H]([C@H](O)[C@H](O)CO)O3)[C@H]2O)[C@H](O)[C@H]1NC(C)=O)[C@@H](C)CC)[C@@H](C)O[C@H]1O[C@H](CO)[C@@H](O)[C@H](O)[C@@H]1O[C@@H]1O[C@H](CO)[C@@H](O[C@@H]2O[C@H](CO)[C@H](O)[C@H](O[C@]3(C(=O)O)C[C@H](O)[C@@H](NC(C)=O)[C@H]([C@H](O)[C@H](O)CO)O3)[C@H]2O)[C@H](O)[C@H]1NC(C)=O)[C@@H](C)O[C@H]1O[C@H](CO)[C@@H](O)[C@H](O)[C@@H]1O[C@@H]1O[C@H](CO)[C@@H](O[C@@H]2O[C@H](CO)[C@H](O)[C@H](O[C@]3(C(=O)O)C[C@H](O)[C@@H](NC(C)=O)[C@H]([C@H](O)[C@H](O)CO)O3)[C@H]2O)[C@H](O)[C@H]1NC(C)=O)[C@@H](C)CC`, the result (in the test on Canavalia ensiformis; in the test with Arachis hypogaea; in test [1]; in [2]; in the test with Triticum aestivum; in the test filed under Homo sapiens [3]) was Active. The outcome (in test [4]; in [5]; in [6]; in the test on Erythrina crista-galli) was Active. For the same compound, the result (with Datura stramonium; in the test with Maackia amurensis; in the test listed under Homo sapiens [7]; in [8]) was inactive.

For the compound `CC[C@H](C)[C@H](NC(=O)[C@H](C)NC(=O)CNC(=O)[C@H](CCCNC(=N)N)NC(=O)[C@@H](NC(=O)CCCC(C)=O)[C@@H](C)O)C(=O)N[C@H](C(=O)N[C@@H](CCC(N)=O)C(=O)N[C@H](C(=O)N1CCC[C@H]1C(=O)N[C@H](C(=O)N[C@@H](CC(C)C)C(=O)NCC(=O)N1CCC[C@H]1C(=O)N[C@H](C(=O)N[C@@H](CCC(N)=O)C(=O)N1CCC[C@H]1C(=O)N[C@H](C(=O)N[C@@H](CCCNC(=N)N)C(=O)N[C@H](C(N)=O)C(C)C)[C@@H](C)O[C@H]1O[C@H](CO)[C@@H](O)[C@H](O)[C@@H]1O[C@@H]1O[C@H](CO)[C@@H](O)[C@H](O)[C@H]1NC(C)=O)[C@@H](C)CC)[C@@H](C)O[C@H]1O[C@H](CO)[C@@H](O)[C@H](O)[C@@H]1O[C@@H]1O[C@H](CO)[C@@H](O)[C@H](O)[C@H]1NC(C)=O)[C@@H](C)O[C@H]1O[C@H](CO)[C@@H](O)[C@H](O)[C@@H]1O[C@@H]1O[C@H](CO)[C@@H](O)[C@H](O)[C@H]1NC(C)=O)[C@@H](C)CC` ({Hexanoyl(5-oxo)}-TRGAIIQT(GlcNAc(β1-2)αMan)PT(GlcNAc(β1-2)αMan)LGPIQPT(GlcNAc(β1-2)αMan)RV-NH2), the result (with Canavalia ensiformis; in the test with Arachis hypogaea; in [1]; in test [2]; in the test on Triticum aestivum; in the test listed under Homo sapiens [3]) was Active. Further, the result (in test [4]; in test [5]; in [6]; in the test with Erythrina crista-galli) was Active. Further, the result (in the test with Datura stramonium; with Maackia amurensis; in the test listed under Homo sapiens [7]; in test [8]) was inactive.

As for `CC[C@H](C)[C@H](NC(=O)[C@H](C)NC(=O)CNC(=O)[C@H](CCCNC(=N)N)NC(=O)[C@@H](NC(=O)CCCC(C)=O)[C@@H](C)O)C(=O)N[C@H](C(=O)N[C@@H](CCC(N)=O)C(=O)N[C@H](C(=O)N1CCC[C@H]1C(=O)N[C@H](C(=O)N[C@@H](CC(C)C)C(=O)NCC(=O)N1CCC[C@H]1C(=O)N[C@H](C(=O)N[C@@H](CCC(N)=O)C(=O)N1CCC[C@H]1C(=O)N[C@H](C(=O)N[C@@H](CCCNC(=N)N)C(=O)N[C@H](C(N)=O)C(C)C)[C@@H](C)O)[C@@H](C)CC)[C@@H](C)O[C@H]1O[C@H](CO)[C@@H](O)[C@H](O)[C@@H]1O[C@@H]1O[C@H](CO)[C@@H](O)[C@H](O)[C@H]1NC(C)=O)[C@@H](C)O[C@H]1O[C@H](CO)[C@@H](O)[C@H](O)[C@@H]1O[C@@H]1O[C@H](CO)[C@@H](O)[C@H](O)[C@H]1NC(C)=O)[C@@H](C)CC` ({Hexanoyl(5-oxo)}-TRGAIIQT(GlcNAc(β1-2)αMan)PT(GlcNAc(β1-2)αMan)LGPIQPTRV-NH2), the result (in the test with Canavalia ensiformis; in the test on Arachis hypogaea; in [1]; in test [2]; in the test on Triticum aestivum; in the test listed under Homo sapiens [3]) was Active. The result (in [4]; in test [5]; in [6]; in the test with Erythrina crista-galli) was Active. Besides, the result (with Datura stramonium; in the test with Maackia amurensis; in the test listed under Homo sapiens [7]; in test [8]) was inactive.

For the compound `CC[C@H](C)[C@H](NC(=O)[C@H](C)NC(=O)CNC(=O)[C@H](CCCNC(=N)N)NC(=O)[C@@H](NC(=O)CCCC(C)=O)[C@@H](C)O)C(=O)N[C@H](C(=O)N[C@@H](CCC(N)=O)C(=O)N[C@H](C(=O)N1CCC[C@H]1C(=O)N[C@H](C(=O)N[C@@H](CC(C)C)C(=O)NCC(=O)N1CCC[C@H]1C(=O)N[C@H](C(=O)N[C@@H](CCC(N)=O)C(=O)N1CCC[C@H]1C(=O)N[C@H](C(=O)N[C@@H](CCCNC(=N)N)C(=O)N[C@H](C(N)=O)C(C)C)[C@@H](C)O[C@H]1O[C@H](CO)[C@@H](O)[C@H](O)[C@@H]1O[C@@H]1O[C@H](CO)[C@@H](O)[C@H](O)[C@H]1NC(C)=O)[C@@H](C)CC)[C@@H](C)O)[C@@H](C)O[C@H]1O[C@H](CO)[C@@H](O)[C@H](O)[C@@H]1O[C@@H]1O[C@H](CO)[C@@H](O)[C@H](O)[C@H]1NC(C)=O)[C@@H](C)CC` ({Hexanoyl(5-oxo)}-TRGAIIQT(GlcNAc(β1-2)αMan)PTLGPIQPT(GlcNAc(β1-2)αMan)RV-NH2), the outcome (with Canavalia ensiformis; in the test with Arachis hypogaea; in [1]; in [2]; with Triticum aestivum; in the test filed under Homo sapiens [3]) was Active. Also, the result (in test [4]; in [5]; in test [6]; in the test with Erythrina crista-galli) was Active. Moreover, the outcome (with Datura stramonium; in the test on Maackia amurensis; in the test filed under Homo sapiens [7]; in test [8]) was inactive.

In the case of `CC[C@H](C)[C@H](NC(=O)[C@H](C)NC(=O)CNC(=O)[C@H](CCCNC(=N)N)NC(=O)[C@@H](NC(=O)CCCC(C)=O)[C@@H](C)O)C(=O)N[C@H](C(=O)N[C@@H](CCC(N)=O)C(=O)N[C@H](C(=O)N1CCC[C@H]1C(=O)N[C@H](C(=O)N[C@@H](CC(C)C)C(=O)NCC(=O)N1CCC[C@H]1C(=O)N[C@H](C(=O)N[C@@H](CCC(N)=O)C(=O)N1CCC[C@H]1C(=O)N[C@H](C(=O)N[C@@H](CCCNC(=N)N)C(=O)N[C@H](C(N)=O)C(C)C)[C@@H](C)O)[C@@H](C)CC)[C@@H](C)O)[C@@H](C)O[C@H]1O[C@H](CO)[C@@H](O)[C@H](O)[C@@H]1O[C@@H]1O[C@H](CO)[C@@H](O)[C@H](O)[C@H]1NC(C)=O)[C@@H](C)CC` ({Hexanoyl(5-oxo)}-TRGAIIQT(GlcNAc(β1-2)αMan)PTLGPIQPTRV-NH2), the outcome (in the test on Canavalia ensiformis; in the test on Arachis hypogaea; in test [1]; in test [2]; with Triticum aestivum; in the test filed under Homo sapiens [3]) was Active. For the same compound, the outcome (in test [4]; in test [5]; in [6]; in the test on Erythrina crista-galli) was Active. The result (in the test on Datura stramonium; in the test with Maackia amurensis; in the test filed under Homo sapiens [7]; in test [8]) was inactive.
